# Results published in patent publication US11439627B2, “Pharmaceutical composition for the treatment of autism” (Stalicla S.A., priority 2017, dated 2022).
# Tests used:
# [1] = single dose of 10 mg, healthy adults, in 72 hours; cited from earlier work
# [2] = system: patients with autism spectrum disorder classified as Phenotype 1; experiment: ADI-r scores of ASD phenotype 1 patients under treatment; type: in vivo, human; settings: after four weeks of ibudilast 0.6 mg/kg daily total, TID
# Procedure: A pharmaceutical composition comprising ibudilast and bumetanide was administered to patients with a diagnosis of autism spectrum disorder as defined in the DSM-5, or PDD-NOS or Asperger syndrome as defined in the DSM-IV. Eligibility criteria: male sex, age 5-50, no current chronic illness, no history of active seizures within 1 year, normal liver, renal and thyroid function. Concomitant medications were permitted if doses were stable for at least 60 days prior to the initiation of the challenge test. Patients with no syndromic or identified genetic etiology. […] Description: Four of the patients characterized as above were administered ibudilast. The four subjects had varying levels of functioning ranging from mild to severe, and varying different levels of verbal and intellectual abilities. IQ values ranged from 61 to 86. All were males. Four patients were treated with ibudilast at a daily total dosage of 0.6 mg/kg, TID. A new treatment regimen was introduced, this time ibudilast at a daily total dosage of 0.6 mg/kg, TID, was administered in conjunction with bumetanide at a daily total dosage of 0.08 mg/kg, BID (with a maximum upper daily dose of […]).
smiles,measurement,setting,value
CC(C)C(=O)c1c(C(C)C)nn2ccccc12 [ibudilast],dose excreted as metabolites in urine,[1],about 60%
same,ADI-r RI,"[2]; Patient 1, baseline 7",6
same,ADI-r C,"[2]; Patient 1, baseline 24",20
same,ADI-r SI,"[2]; Patient 1, baseline 28",21
same,ADI-r RI,"[2]; Patient 2, baseline 5",5
same,ADI-r C,"[2]; Patient 2, baseline 19",15
same,ADI-r SI,"[2]; Patient 2, baseline 20",16
same,ADI-r RI,"[2]; Patient 3, baseline 7",5
same,ADI-r SI,"[2]; Patient 3, baseline 14",12
same,ADI-r C,"[2]; Patient 3, baseline 18",14
same,ADI-r RI,"[2]; Patient 4, baseline 7",7
same,ADI-r C,"[2]; Patient 4, baseline 17",14
same,ADI-r SI,"[2]; Patient 4, baseline 27",22
